Values quoted from earlier work in patent US20110287117A1, “Adjuvant Therapy in the Treatment of Gouty Arthritis” (UNIVERSITY OF MEDICINE AND DENTISTRY OF NEW JERSEY, priority 2009, published 2011).

Conditions: in vivo

recombinant IL-6: recombinant interleukin 6 administered in a cited study
serum SU level: lowered | urinary secretion of uric acid: increased
